According to patent US10213415B2, “Compounds as opioid receptor modulators” (JANSSEN PHARMACEUTICA NV, priority 2004, dated 2019):

Legend:
delta opioid receptor = molecular target: T1, delta opioid receptor (Rattus norvegicus, UniProt P33533); experiment: Rat Brain Delta Opioid Receptor Binding Assay-Version 1a ([3H]naltrindole); conditions: rat forebrain membranes, 0.1 nM [3H]naltrindole; margin of error 10-20%; read-out: r Ki δ Ver. 1a
T1 construct: from tissue; host or cells: forebrain of male Wistar rats
Method: Male, Wistar rats (150-250 g, VAF, Charles River, Kingston, N.Y.) were killed by cervical dislocation, and their brains removed and placed immediately in ice-cold Tris HCl buffer (50 mM, pH 7.4). The forebrains were separated from the remainder of the brain by a coronal transection, beginning dorsally at the colliculi and passing ventrally through the midbrain-pontine junction. After dissection, the forebrains were homogenized in Tris buffer in a Teflon®-glass homogenizer. The homogenate was diluted to a concentration of 1 g of forebrain tissue per 80 mL Tris and centrifuged at 39,000×g for 10 min. The pellet was resuspended in the same volume of Tris buffer containing 5 mM MgCl2 with several brief pulses from a Polytron homogenizer. This particulate preparation was used for the delta opioid binding assay. Following incubation with 0.1 nM of the delta selective ligand [^3H]naltrindole at 25° C. for 2.5 h in a 96-well plate with total 1 mL, the plate contents were filtered through Wallac filtermat B sheets on a Tomtec 96-well harvester. The filters were rinsed three times with 2 mL of 10 mM HEPES (pH 7.4), and dried in a microwave oven. To each sample area, Betaplate Scint scintillation fluid (LKB) was added and the resulting radioactivity quantified on a LKB (Wallac) 1205 BetaPlate liquid scintillation counter. Kd and Ki values were calculated using the GraphPad PRISM data analysis program.

mu opioid receptor = molecular target: T2, mu opioid receptor (Rattus norvegicus, UniProt P33535); experiment: Rat Brain Mu Opioid Receptor Binding Assay (and Version 2a, [3H]DAMGO); conditions: rat forebrain membranes, margin of error 10-20%, read-out: r Ki μ
T2 construct: from tissue; host or cells: forebrain of male Wistar rats
How it was run: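 Displacement of the mu-selective radioligand [3H]DAMGO (0.8 nM) measured by filtration and scintillation counting after 2.5 h at 25° C. Membranes came from male Wistar rat forebrain in Tris-HCl (50 mM, pH 7.4) plus 5 mM MgCl2; Ki derived from concentration–response, % inhibition for single doses.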

human mu opioid receptor = molecular target: T3, human mu opioid receptor (Homo sapiens, UniProt P35372); experiment: Human Mu Opioid Receptor Binding Assay (CHO membranes, 3H-Damgo); conditions: read-out: hKi μ
T3 construct: purchased Perkin Elmer RBHOMM400UA; host or cells: Chinese Hamster Ovary cells (recombinant expression)
How it was run: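 Radioligand displacement of ³H-Damgo (diluted to 3.6 nM pre-mix) from recombinant human mu receptor in CHO membranes, 2 h, room temperature, 50 mM Tris pH 7.5 with 5 mM MgCl2. Bound label read by filtration and scintillation counting; 1 μM unlabelled Damgo defines nonspecific binding.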

T1 sequence (P33533 whole entry): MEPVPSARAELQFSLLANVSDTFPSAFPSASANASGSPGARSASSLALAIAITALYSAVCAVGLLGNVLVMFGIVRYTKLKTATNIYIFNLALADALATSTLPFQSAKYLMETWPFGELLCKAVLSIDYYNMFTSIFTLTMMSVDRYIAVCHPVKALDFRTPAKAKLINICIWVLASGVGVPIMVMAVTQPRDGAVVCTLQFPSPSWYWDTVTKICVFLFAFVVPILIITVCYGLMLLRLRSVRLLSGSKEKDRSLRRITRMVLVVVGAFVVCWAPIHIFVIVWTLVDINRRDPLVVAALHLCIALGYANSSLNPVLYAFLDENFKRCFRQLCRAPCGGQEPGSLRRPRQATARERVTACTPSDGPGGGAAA
T2 sequence (P33535 whole entry): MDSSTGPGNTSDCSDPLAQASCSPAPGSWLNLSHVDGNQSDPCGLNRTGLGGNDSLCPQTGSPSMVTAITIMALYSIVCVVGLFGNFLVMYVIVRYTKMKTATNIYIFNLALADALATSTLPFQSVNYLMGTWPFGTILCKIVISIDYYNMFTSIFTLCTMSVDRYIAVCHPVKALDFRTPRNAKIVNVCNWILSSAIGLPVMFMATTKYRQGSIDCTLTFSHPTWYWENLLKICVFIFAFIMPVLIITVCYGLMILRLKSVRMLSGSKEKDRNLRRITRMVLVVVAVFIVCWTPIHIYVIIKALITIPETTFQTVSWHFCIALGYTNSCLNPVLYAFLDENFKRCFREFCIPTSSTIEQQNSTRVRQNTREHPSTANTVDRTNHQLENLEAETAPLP
T3 sequence (P35372 whole entry): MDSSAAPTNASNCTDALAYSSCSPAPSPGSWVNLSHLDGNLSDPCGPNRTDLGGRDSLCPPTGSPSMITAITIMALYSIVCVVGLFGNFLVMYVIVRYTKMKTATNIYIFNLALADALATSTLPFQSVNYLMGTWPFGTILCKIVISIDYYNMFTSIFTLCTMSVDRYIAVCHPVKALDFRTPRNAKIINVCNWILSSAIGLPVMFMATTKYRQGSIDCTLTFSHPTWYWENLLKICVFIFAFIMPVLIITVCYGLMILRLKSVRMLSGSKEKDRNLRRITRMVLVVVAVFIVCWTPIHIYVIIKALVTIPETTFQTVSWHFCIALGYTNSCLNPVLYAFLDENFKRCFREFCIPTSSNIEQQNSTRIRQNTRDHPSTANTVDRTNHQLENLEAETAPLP

Row | SMILES | Ki (delta opioid receptor) [nM] | Ki (mu opioid receptor) [nM] | Ki (human mu opioid receptor) [nM]
1 | COc1ccc(CN(C(=O)[C@@H](N)Cc2c(C)cc(O)cc2C)[C@@H](C)c2nc(-c3ccccc3)c[nH]2)cc1C(=O)Nc1ccc(C(=O)O)cc1 [Cpd 308] | 0.48 | 1.2 | 
2 | COc1ccc(CN(C(=O)[C@@H](N)Cc2c(C)cc(O)cc2C)[C@@H](C)c2nc(-c3ccccc3)c[nH]2)cc1C(=O)Nc1ccccc1 [Cpd 305] | 1.24 | 0.2 | 
3 | C[C@@H](c1nc(-c2ccccc2)c[nH]1)N(Cc1ccc(C(=O)O)o1)C(=O)[C@@H](N)Cc1ccc(C(N)=O)cc1 [Cpd 304] | 119 | 161 | 41
4 | COc1ccc(CN(C(=O)[C@@H](N)Cc2c(C)cc(O)cc2C)[C@@H](C)c2nc(-c3ccccc3)c[nH]2)cc1-c1nnn[nH]1 [Cpd 307] | 0.07 | 0.4 | 
5 | COc1ccc(CN(C(=O)[C@@H](N)Cc2c(C)cc(O)cc2C)[C@@H](C)c2nc(-c3ccccc3)c[nH]2)cc1C(=O)Nc1cccc(C(=O)O)c1 [Cpd 306] | 0.18 | 0.9 | 
